Test results reported in patent US8716436B2 (priority 2010, dated 2014).
In brackets after ≈: the same amount, converted by molar mass. Like-named read-outs stand apart in the source and are kept apart here. Where a SMILES comes first, the peptide text is derived from it.

How the values were obtained:
[1] = Spared nerve injury (SNI) neuropathic pain, Randall-Selitto paw pressure; assay type: in vivo; settings: rat SNI; for Reversal time of hyperalgesia (significantly above vehicle): intrathecal cumulative doses
[2] = Tolerance: intrathecal cumulative dose-response in tail-flick test before and after 1 week osmotic minipump; assay type: in vivo; settings: rat; for ED50 antinociception on Day 7 after minipump implantation: morphine 2 μg/hr or analog 0.056 μg/hr for about 7 days; for ED50 antinociception in opioid naïve animals: before minipump
[3] = rat
[4] = Rotorod test of motor coordination; settings: rat, cumulative i.v. doses
[5] = Morris Water Maze (spatial memory); settings: rat, after 4 days of training
[6] = Conditioned place preference (CPP); settings: rat, i.v., doses producing maximal antinociception
glia = assay: Glial activation (GFAP and phospho-p38 staining) after 1 week of treatment; settings: rat, after 1 week intrathecal treatment
human mu opioid receptor = target: T1, human mu opioid receptor (Homo sapiens, UniProt P35372); assay: biochemical; assay type: binding
T1 construct: expressed in transfected cells; host or cells: CHO cells
T1 sequence (P35372 whole entry): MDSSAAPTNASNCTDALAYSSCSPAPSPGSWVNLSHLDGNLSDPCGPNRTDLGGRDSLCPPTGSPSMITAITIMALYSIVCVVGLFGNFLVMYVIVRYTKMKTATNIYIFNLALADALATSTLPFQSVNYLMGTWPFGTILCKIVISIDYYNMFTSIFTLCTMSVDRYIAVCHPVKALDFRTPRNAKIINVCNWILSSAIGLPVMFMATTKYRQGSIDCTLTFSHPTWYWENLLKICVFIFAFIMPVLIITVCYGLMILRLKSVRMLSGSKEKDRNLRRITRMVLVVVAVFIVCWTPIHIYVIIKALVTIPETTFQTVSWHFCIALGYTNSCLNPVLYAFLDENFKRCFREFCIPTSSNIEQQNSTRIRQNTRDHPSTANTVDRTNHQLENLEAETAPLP

[7] = target: human delta opioid receptor (Homo sapiens, UniProt P41143); assay: biochemical; assay type: binding
Chain of human delta opioid receptor (P41143 whole entry): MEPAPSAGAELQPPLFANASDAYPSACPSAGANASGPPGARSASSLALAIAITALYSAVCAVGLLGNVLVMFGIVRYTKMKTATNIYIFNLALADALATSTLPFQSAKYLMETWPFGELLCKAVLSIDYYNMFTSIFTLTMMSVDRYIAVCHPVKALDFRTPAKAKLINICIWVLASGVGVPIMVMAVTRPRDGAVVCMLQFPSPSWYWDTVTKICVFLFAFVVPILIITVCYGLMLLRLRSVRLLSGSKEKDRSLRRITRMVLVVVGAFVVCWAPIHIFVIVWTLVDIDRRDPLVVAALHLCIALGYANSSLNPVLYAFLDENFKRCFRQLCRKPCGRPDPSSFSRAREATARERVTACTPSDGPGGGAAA

[8] = target: T2, cloned human mu opioid receptor (Homo sapiens, UniProt P35372); assay: biochemical; assay type: biochemical
T2 construct: expressed in transfected cells
T2 sequence (P35372 whole entry): as the sequence (P35372 whole entry) above

[9] = target: T3, cloned human delta opioid receptor (Homo sapiens, UniProt P41143); assay: biochemical
T3 construct: expressed in transfected cells
T3 sequence (P41143 whole entry): as the sequence (P41143 whole entry) above

[10] = target: T3, cloned human delta opioid receptor; assay: 35S-GTPγS functional assay, delta antagonism against ED80 dose of SNC80; assay type: biochemical; settings: for Delta Antagonist efficacy: against ED80 dose of SNC80
Solubility = assay type: physicochemical
Experimental: The solubility of the peptides of Formula I (e.g., in saline or physiologic buffer) typically is enhanced relative to the prior art tetrapeptide analogs of the endomorphins Addition of a hydrophilic amino acid and amidated C-terminus to the relatively hydrophobic tetrapeptide sequences Tyr-cyclo[D-Lys-Trp-Phe] (SEQ ID NO:10) and Tyr-cyclo[D-Lys-Phe-Phe] […] For example, Compound 1 was soluble in water, saline and 20% PEG/saline at about 43, 21 and 90 mg/mL, respectively, compared to less than about 2 mg/mL for the previously described compounds. While increases in solubility are associated with improved pharmaceutical delivery properties, higher solubility is also often associated with reduced functional activity (e.g., receptor binding) that may depend on lipophilicity.

[11] = Tail-flick (TF) antinociception after i.v. administration; assay type: in vivo; settings: rat; for Antinociception (tail-flick): i.v., 5.6 mg/kg
[12] = target: human kappa opioid receptor (Homo sapiens, UniProt P41145); assay: biochemical; assay type: binding
Chain of human kappa opioid receptor (P41145 whole entry): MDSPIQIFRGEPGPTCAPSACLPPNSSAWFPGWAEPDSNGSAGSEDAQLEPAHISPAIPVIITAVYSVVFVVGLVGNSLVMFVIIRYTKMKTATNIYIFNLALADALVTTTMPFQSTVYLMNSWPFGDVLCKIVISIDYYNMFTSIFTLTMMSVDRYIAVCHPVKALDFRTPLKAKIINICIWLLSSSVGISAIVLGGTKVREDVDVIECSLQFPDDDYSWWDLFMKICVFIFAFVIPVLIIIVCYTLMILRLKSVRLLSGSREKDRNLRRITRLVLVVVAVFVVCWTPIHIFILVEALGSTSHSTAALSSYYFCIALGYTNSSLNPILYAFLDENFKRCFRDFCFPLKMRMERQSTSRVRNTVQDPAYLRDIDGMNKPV

[13] = target: cloned human kappa opioid receptor (Homo sapiens, UniProt P41145); assay: biochemical
Chain of cloned human kappa opioid receptor (P41145 whole entry): as above

Q: Which “Dose required to fully (100%) reverse hyperalgesia” value ([1]; intrathecal) does the source give for CN1CC[C@]23c4c5ccc(O)c4O[C@H]2[C@@H](O)C=C[C@H]3[C@H]1C5 [Morphine, morphine, reference compound] here?
A: about 1.14 μg

Q: What about the “Reversal time of hyperalgesia (significantly above vehicle)” value [1] of the same compound?
A: about 80 min

Q: And the “ED50 antinociception on Day 7 after minipump implantation” value [2]?
A: 16 ± 3.3 µg

Q: What about the “ED50 antinociception in opioid naïve animals” value ([2]; tail-flick) of the same compound?
A: 0.253 µg

Q: What about the Self-administration [3] of the same compound?
A: resulted in significant self-administration

Q: What about the “Motor impairment (rotorod)” value [4] of the same compound?
A: significantly above that of vehicle controls

Q: And the “Impairment of spatial memory (latency to and distance from platform)” value [5]?
A: produced impairment of spatial memory

Q: What about the “Conditioned place preference (time spent on the drug side)” value (“Conditioned place preference” below) [6] of the same compound?
A: increase in the time spent on the drug side

Q: And the “Glial activation (integrated density of GFAP and pp38 staining)” value (“Glial activation” below) (glia)?
A: produced significant glial activation

Q: For NC(=O)[C@@H]1CC(=O)NCCCC[C@@H](NC(=O)[C@@H](N)Cc2ccc(O)cc2)C(=O)N[C@@H](Cc2c[nH]c3ccccc23)C(=O)N[C@@H](Cc2ccccc2)C(=O)N1 [Compound 5, Tyr-c[D-Lys-Trp-Phe-Asp]-NH2], which Ki (human mu opioid receptor) is on record?
A: 0.43 nM

Q: What about the Ki [7] of the same compound?
A: 140 nM

Q: What about the EC50 [8] of the same compound?
A: 0.22 nM

Q: What about the EC50 [9] of the same compound?
A: > 100000 nM

Q: And the IC50 [10]?
A: 557 nM

Q: And the “Delta Antagonist efficacy” value [10]?
A: 100

Q: What about the “Conditioned place preference” value [6] of the same compound?
A: no significant CPP

Q: And the “Glial activation” value (glia)?
A: activation was not significantly different from vehicle

Q: Which Ki (human mu opioid receptor) does the source give for NC(=O)[C@@H]1CCC(=O)NCCCC[C@@H](NC(=O)[C@@H](N)Cc2ccc(O)cc2)C(=O)N[C@@H](Cc2c[nH]c3ccccc23)C(=O)N[C@@H](Cc2ccccc2)C(=O)N1 [Compound 1, Tyr-c[D-Lys-Trp-Phe-Glu]-NH2] here?
A: 0.49 nM

Q: And the Ki [7]?
A: 132 nM

Q: What about the “Agonist EC50 mu” value [8] of the same compound?
A: significantly greater potency than the reference compound, DAMGO

Q: And the “Agonist efficacy at the mu receptor” value [8]?
A: full efficacy agonist

Q: And the EC50 [8]?
A: 0.15 nM

Q: What about the EC50 [9] of the same compound?
A: > 100000 nM

Q: And the IC50 [10]?
A: 105 nM

Q: And the “Delta Antagonist efficacy” value [10]?
A: full efficacy delta antagonism

Q: And the “Delta Antagonist efficacy” value ([10]; listed as Comp. 1)?
A: 93

Q: What about the solubility (Solubility; 20% PEG/saline, read-out: Solubility in 20% PEG/saline) of the same compound?
A: ~90 mg/mL (≈ 120 mM)

Q: What about the solubility (Solubility; saline, read-out: Solubility in saline) of the same compound?
A: ~21 mg/mL (≈ 27.9 mM)

Q: And the solubility (Solubility; water, read-out: Solubility in water)?
A: ~43 mg/mL (≈ 57.1 mM)

Q: And the “Antinociception (TF) relative to morphine” value ([11]; cumulative doses, about 140 to 180 minutes after injection)?
A: greater antinociception

Q: What about the “Antinociception (tail-flick)” value [11] of the same compound?
A: antinociception similar to the 10 mg dose of morphine

Q: And the “Time at which scores were significantly above those of morphine” value ([1]; intrathecal)?
A: 155 to 215 min

Q: What about the “Glial activation” value (glia) of the same compound?
A: activation was not significantly different from vehicle

Q: For NC(=O)[C@@H]1CCCCNC(=O)CC[C@@H](NC(=O)[C@@H](N)Cc2ccc(O)cc2)C(=O)N[C@@H](Cc2ccccc2)C(=O)N[C@@H](Cc2ccccc2)C(=O)N1 [Compound 2, Tyr-c[D-Glu-Phe-Phe-Lys]-NH2], which Ki (human mu opioid receptor) is on record?
A: 0.73 nM

Q: What about the Ki [7] of the same compound?
A: 69 nM

Q: And the EC50 [8]?
A: 0.99 nM

Q: And the EC50 [9]?
A: > 100000 nM

Q: And the IC50 [10]?
A: 2750 nM

Q: And the “Delta Antagonist efficacy” value [10]?
A: 51

Q: And the “Antinociception (TF latency) relative to morphine” value ([11]; cumulative i.v. doses, at 135 and 155 minutes)?
A: significantly longer antinociception

Q: And the “Antinociception (tail-flick)” value [11]?
A: antinociception similar to the 10 mg dose of morphine

Q: What about the “Reversal time of hyperalgesia (significantly above vehicle)” value [1] of the same compound?
A: ~260 min

Q: And the “Shift in ED50 (tolerance)” value ([2]; after 1 week minipump)?
A: about 8.5 fold

Q: What about the “ED50 antinociception on Day 7 after minipump implantation” value [2] of the same compound?
A: about 0.11±0.02 μg

Q: And the “Potency relative to morphine on a molar basis” value ([2]; tail-flick)?
A: about 40 fold

Q: What about the “ED50 antinociception in opioid naïve animals” value ([2]; tail-flick) of the same compound?
A: 0.01 µg

Q: And the “Motor impairment (rotorod)” value [4]?
A: significantly less than that of morphine

Q: And the “Impairment of spatial memory (latency to and distance from platform)” value [5]?
A: did not produce significant impairment

Q: And the “Conditioned place preference” value [6]?
A: no significant CPP

Q: What about the “Glial activation” value (glia) of the same compound?
A: activation was not significantly different from vehicle

Q: For N[C@@H](Cc1ccc(O)cc1)C(=O)N[C@@H]1CCCCNC(=O)[C@H](Cc2ccccc2)NC(=O)[C@H](Cc2c[nH]c3ccccc23)NC1=O [ck1, Tyr-c[D-Lys-Trp-Phe], reference compound] (HELM PEPTIDE1{Y.[dK].W.F}$PEPTIDE1,PEPTIDE1,2:R3-4:R2$$$V2.0; bridges inferred), which Ki (human mu opioid receptor) is on record?
A: 0.32 nM

Q: What about the Ki [7] of the same compound?
A: 28 nM

Q: What about the “Selectivity Delta/Mu (binding)” value [7] of the same compound?
A: 90

Q: And the Ki [12]?
A: 35 nM

Q: And the “Selectivity Kappa/Mu (binding)” value [12]?
A: 111

Q: And the EC50 [8]?
A: 0.21 nM

Q: And the EC50 [9]?
A: 138 nM

Q: And the “Selectivity delta/mu (activation)” value [9]?
A: 658

Q: What about the EC50 [13] of the same compound?
A: 470 nM

Q: And the “Selectivity kappa/mu (activation)” value [13]?
A: 2236

Q: What does the source list for N[C@@H](Cc1ccc(O)cc1)C(=O)N[C@@H]1CCCCNC(=O)[C@H](Cc2ccccc2)NC(=O)[C@H](Cc2ccccc2)NC1=O [ck2, Tyr-c[D-Lys-Phe-Phe], reference compound] (HELM PEPTIDE1{Y.[dK].F.F}$PEPTIDE1,PEPTIDE1,2:R3-4:R2$$$V2.0; bridges inferred)?
A: Ki (human mu opioid receptor): 0.36 nM; Ki [7]: 3 nM; Selectivity Delta/Mu (binding) [7]: 9; Ki [12]: 12 nM; Selectivity Kappa/Mu (binding) [12]: 33; EC50 [8]: 0.15 nM; EC50 [9]: 7 nM; Selectivity delta/mu (activation) [9]: 44; EC50 [13]: 206 nM; Selectivity kappa/mu (activation) [13]: 1374

Q: Which “Delta Antagonist efficacy” value [10] does the source give for “Tyr-c[D-Lys-Trp-Phe-Glu]-Gly-NH2 [Compound 3]” here?
A: full efficacy delta antagonism
